Patent US5948791A, “Quinoline derivatives for treating malaria” (Hoffmann-La Roche Inc., priority 1995, dated 1999)
Read-outs that look alike come from different tables or passages of the source.

Assays:
Plasmodium falciparum K1 = assay: Growth inhibition of Plasmodium falciparum K1 (chloroquine-resistant) in vitro, [G-3H]-hypoxanthin incorporation; assay type: cell-based, Plasmodium falciparum (strain K1); settings: for IC50: Plasmodium falciparum, K1, 72 h, read-out: IC50 for P. falciparum K1; for Resistance index: ratio of the IC50 for K1 and the IC50 for NF54
Summary of the method: (§1)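 Asynchronous intraerythrocytic cultures in human A+ erythrocytes (0.7% parasitemia, 2.5% suspension) in RPMI 1640 with HEPES, NaHCO3 and human serum, exposed to compound titrated over 6-7 steps for 72 h at 37° C, 3% O2. Growth by [G-3H]-hypoxanthin incorporation against untreated controls; IC50 by logit regression.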

[1] = test system: Plasmodium falciparum strain NF54; assay: Growth inhibition of Plasmodium falciparum NF54 (chloroquine-sensitive) in vitro, [G-3H]-hypoxanthin incorporation; assay type: cell-based; settings: chloroquine-sensitive strain NF54, 72 h, read-out: IC50 for P. falciparum NF54
Summary of the method: as §1

Plasmodium berghei = assay: animal or person; assay type: in vivo, Plasmodium berghei (strain ANKA) in mice; settings: Plasmodium berghei, mice, blood smears 48 h after treatment
Summary of the method: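 Male albino mice (~25 g) infected i.v. on D0 with P. berghei ANKA (0.2 ml of 10^8 parasitized erythrocytes/ml); single s.c. and p.o. dose 24 h post-infection, 10 mg/kg screen then titration.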

[2] = po, single peroral dose of 10 mg/kg, read-out: Growth inhibition in % after po administration (GI%, percentage reduction of the parasitemia)
[3] = sc, single subcutaneous dose of 10 mg/kg, read-out: Growth inhibition in % after sc administration (GI%, percentage reduction of the parasitemia)

Compound `Cl.Cl.Fc1cc(CN[C@H]2CC[C@@H](Nc3ccnc4cc(Cl)ccc34)CC2)ccc1Cl` [Example 76, cis-N1-(7-Chloro-quinolin-4-yl)-N4-(4-chloro-3-fluoro-benzyl)-cyclohexane-1,4-diamine dihydrochloride] has an IC50 (Plasmodium falciparum K1) of 6.1 ng/mL, a Resistance index (Plasmodium falciparum K1) of 0.8 and an IC50 [1] of 7.2 ng/mL. For the same compound, the inhibition in vivo at 10 mg/kg (Plasmodium berghei; [2]) was 96% and the inhibition in vivo at 10 mg/kg (Plasmodium berghei; [3]) was 96%.

With `Cl.Cl.FC(F)(F)c1cc(CN[C@H]2CC[C@@H](Nc3ccnc4cc(Cl)ccc34)CC2)cc(C(F)(F)F)c1` [Example 77, cis-N1-(7-Chloro-quinolin-4-yl)-N4-(3,5-bis-trifluoromethyl-benzyl)-cyclohexane-1,4-diamine dihydrochloride] the IC50 (Plasmodium falciparum K1) was 63.2 ng/mL, the Resistance index (Plasmodium falciparum K1) was 0.7 and the IC50 [1] was 96.6 ng/mL. It also gave an inhibition in vivo at 10 mg/kg (Plasmodium berghei; [2]) of 99% and an inhibition in vivo at 10 mg/kg (Plasmodium berghei; [3]) of 98%.

Work on `COc1ccc(CN[C@H]2CC[C@@H](Nc3ccnc4cc(Cl)ccc34)CC2)c(O)c1.Cl.Cl` [Example 79, cis-N1-(7-Chloro-quinolin-4-yl)-N4-(2-hydroxy-4-methoxy-benzyl)-cyclohexane-1,4-diamine dihydrochloride] yielded an IC50 (Plasmodium falciparum K1) of 7.7 ng/mL, a Resistance index (Plasmodium falciparum K1) of 1.9 and an IC50 [1] of 4.1 ng/mL. For the same compound, the inhibition in vivo at 10 mg/kg (Plasmodium berghei; [2]) was 99.9% and the inhibition in vivo at 10 mg/kg (Plasmodium berghei; [3]) was 100%.

`COc1ccc(O)c(CN[C@H]2CC[C@@H](Nc3ccnc4cc(Cl)ccc34)CC2)c1.Cl.Cl` [Example 80, cis-N1-(7-Chloro-quinolin-4-yl)-N4-(2-hydroxy-5-methoxy-benzyl)-cyclohexane-1,4-diamine dihydrochloride] was tested, and the IC50 (Plasmodium falciparum K1) was 18.4 ng/mL, the Resistance index (Plasmodium falciparum K1) was 2.1 and the IC50 [1] was 8.9 ng/mL. For the same compound, the inhibition in vivo at 10 mg/kg (Plasmodium berghei; [2]) was 99.9% and the inhibition in vivo at 10 mg/kg (Plasmodium berghei; [3]) was 100%.

Work on `COc1ccc(CN[C@H]2CC[C@@H](Nc3ccnc4cc(Cl)ccc34)CC2)c(OC)c1.Cl.Cl` [Example 81, cis-N1-(7-Chloro-quinolin-4-yl)-N4-(2,4-dimethoxy-benzyl)-cyclohexane-1,4-diamine dihydrochloride] yielded an IC50 (Plasmodium falciparum K1) of 9.7 ng/mL, a Resistance index (Plasmodium falciparum K1) of 2.3 and an IC50 [1] of 4.3 ng/mL. The inhibition in vivo at 10 mg/kg (Plasmodium berghei; [2]) was 100% and the inhibition in vivo at 10 mg/kg (Plasmodium berghei; [3]) was 100%.

`COc1cc(CN[C@H]2CC[C@@H](Nc3ccnc4cc(Cl)ccc34)CC2)cc(OC)c1.Cl.Cl` [Example 82, cis-N1-(7-Chloro-quinolin-4-yl)-N4-(3,5-dimethoxy-benzyl)-cyclohexane-1,4-diamine dihydrochloride] showed an IC50 (Plasmodium falciparum K1) of 8.5 ng/mL, a Resistance index (Plasmodium falciparum K1) of 1.5 and an IC50 [1] of 5.7 ng/mL. The inhibition in vivo at 10 mg/kg (Plasmodium berghei; [2]) was 99.9% and the inhibition in vivo at 10 mg/kg (Plasmodium berghei; [3]) was 99.9%.

`CSc1ccc(CN[C@H]2CC[C@@H](Nc3ccnc4cc(Cl)ccc34)CC2)cc1.Cl.Cl` [Example 83, cis-N1-(7-Chloro-quinolin-4-yl)-N4-(4-methylsulphanyl-benzyl)-cyclohexane-1,4-diamine dihydrochloride] showed an IC50 (Plasmodium falciparum K1) of 5.9 ng/mL, a Resistance index (Plasmodium falciparum K1) of 0.7 and an IC50 [1] of 8.6 ng/mL. For the same compound, the inhibition in vivo at 10 mg/kg (Plasmodium berghei; [2]) was 100% and the inhibition in vivo at 10 mg/kg (Plasmodium berghei; [3]) was 100%.

`Cl.Cl.O=[N+]([O-])c1ccc(CN[C@H]2CC[C@@H](Nc3ccnc4cc(Cl)ccc34)CC2)cc1` [Example 84, cis-N1-(7-Chloro-quinolin-4-yl)-N4-(4-nitro-benzyl)-cyclohexane-1,4-diamine dihydrochloride] showed an IC50 (Plasmodium falciparum K1) of 7.8 ng/mL, a Resistance index (Plasmodium falciparum K1) of 1.1 and an IC50 [1] of 6.9 ng/mL. For the same compound, the inhibition in vivo at 10 mg/kg (Plasmodium berghei; [2]) was 100% and the inhibition in vivo at 10 mg/kg (Plasmodium berghei; [3]) was 100%.

For `CCN(CC)c1ccc(CN[C@H]2CC[C@@H](Nc3ccnc4cc(Cl)ccc34)CC2)cc1.Cl.Cl.Cl` [Example 85, cis-N1-(7-Chloro-quinolin-4-yl)-N4-(4-diethylamino-benzyl)-cyclohexane-1,4-diamine trihydrochloride], the IC50 (Plasmodium falciparum K1) was 3.9 ng/mL, the Resistance index (Plasmodium falciparum K1) was 0.8 and the IC50 [1] was 4.6 ng/mL. For the same compound, the inhibition in vivo at 10 mg/kg (Plasmodium berghei; [2]) was 99.9% and the inhibition in vivo at 10 mg/kg (Plasmodium berghei; [3]) was 100%.

Compound `Cl.Cl.N#Cc1ccc(CN[C@H]2CC[C@@H](Nc3ccnc4cc(Cl)ccc34)CC2)cc1` [Example 86, cis-N1-(7-Chloro-quinolin-4-yl)-N4-(4-cyano-benzyl)-cyclohexane-1,4-diamine dihydrochloride] has an IC50 (Plasmodium falciparum K1) of 7 ng/mL, a Resistance index (Plasmodium falciparum K1) of 1.3 and an IC50 [1] of 5.6 ng/mL. The inhibition in vivo at 10 mg/kg (Plasmodium berghei; [2]) was 99.9% and the inhibition in vivo at 10 mg/kg (Plasmodium berghei; [3]) was 99.9%.

Compound `Cl.Cl.Clc1ccc2c(N[C@H]3CC[C@@H](NCc4ccc(-c5ccccc5)cc4)CC3)ccnc2c1` [Example 87, cis-N1-(7-Chloro-quinolin-4-yl)-N4-(biphenyl-4-yl-methyl)-cyclohexane-1,4-diamine dihydrochloride] has an IC50 (Plasmodium falciparum K1) of 10.2 ng/mL, a Resistance index (Plasmodium falciparum K1) of 1.6 and an IC50 [1] of 6.2 ng/mL. For the same compound, the inhibition in vivo at 10 mg/kg (Plasmodium berghei; [2]) was 98% and the inhibition in vivo at 10 mg/kg (Plasmodium berghei; [3]) was 94%.

With `COc1ccc(CCN[C@H]2CC[C@H](Nc3ccnc4cc(Cl)ccc34)CC2)cc1OC.Cl.Cl` [Example 88, trans-N1-(7-Chloro-quinolin-4-yl)-N4-[2-(3,4-dimethoxy-phenyl)-ethyl]-cyclohexane-1,4-diamine dihydrochloride] the IC50 (Plasmodium falciparum K1) was 21.4 ng/mL, the Resistance index (Plasmodium falciparum K1) was 2.9 and the IC50 [1] was 7.4 ng/mL. For the same compound, the inhibition in vivo at 10 mg/kg (Plasmodium berghei; [2]) was 66% and the inhibition in vivo at 10 mg/kg (Plasmodium berghei; [3]) was 99.9%.

For `Cl.Cl.Clc1ccc2c(N[C@H]3CC[C@H](NCCc4ccccc4)CC3)ccnc2c1` [Example 89, trans-N1-(7-Chloro-quinolin-4-yl)-N4-phenethyl-cyclohexane-1,4-diamine dihydrochloride], the IC50 (Plasmodium falciparum K1) was 17.5 ng/mL, the Resistance index (Plasmodium falciparum K1) was 8.0 and the IC50 [1] was 2.2 ng/mL. For the same compound, the inhibition in vivo at 10 mg/kg (Plasmodium berghei; [2]) was 99.8% and the inhibition in vivo at 10 mg/kg (Plasmodium berghei; [3]) was 99.9%.

Work on `COc1cc(N[C@H]2CC[C@H](Nc3ccnc4cc(Cl)ccc34)CC2)cc(OC)c1.Cl` [Example 90, trans-N1-(7-Chloro-quinolin-4-yl)-N4-(3,5-dimethoxy-phenyl)-cyclohexane-1,4-diamine hydrochloride] yielded an IC50 (Plasmodium falciparum K1) of 98.8 ng/mL, a Resistance index (Plasmodium falciparum K1) of 2.0 and an IC50 [1] of 49.7 ng/mL. It also gave an inhibition in vivo at 10 mg/kg (Plasmodium berghei; [2]) of 45% and an inhibition in vivo at 10 mg/kg (Plasmodium berghei; [3]) of 60%.

`Cl.Cl.Clc1ccc(CCN[C@H]2CC[C@H](Nc3ccnc4cc(Cl)ccc34)CC2)c(Cl)c1` [Example 91, trans-N1-(7-Chloro-quinolin-4-yl)-N4-[2-(2,4-dichloro-phenyl)-ethyl]-cyclohexane-1,4-diamine dihydrochloride] was tested, and the IC50 (Plasmodium falciparum K1) was 10.9 ng/mL, the Resistance index (Plasmodium falciparum K1) was 3.2 and the IC50 [1] was 3.4 ng/mL. The inhibition in vivo at 10 mg/kg (Plasmodium berghei; [2]) was 88% and the inhibition in vivo at 10 mg/kg (Plasmodium berghei; [3]) was 86%.

For `COc1ccc(CCN[C@H]2CC[C@H](Nc3ccnc4cc(Cl)ccc34)CC2)cc1.Cl.Cl` [Example 92, trans-N1-(7-Chloro-quinolin-4-yl)-N4-[2-(4-methoxy-phenyl)-ethyl]-cyclohexane-1,4-diamine dihydrochloride], the IC50 (Plasmodium falciparum K1) was 8 ng/mL, the Resistance index (Plasmodium falciparum K1) was 3.6 and the IC50 [1] was 2.2 ng/mL. It also gave an inhibition in vivo at 10 mg/kg (Plasmodium berghei; [2]) of 85% and an inhibition in vivo at 10 mg/kg (Plasmodium berghei; [3]) of 99.7%.

`Cl.Cl.O=[N+]([O-])c1ccc(CCN[C@H]2CC[C@H](Nc3ccnc4cc(Cl)ccc34)CC2)cc1` [Example 93, trans-N1-(7-Chloro-quinolin-4-yl)-N4-[2-(4-nitro-phenyl)-ethyl]-cyclohexane-1,4-diamine dihydrochloride] showed an IC50 (Plasmodium falciparum K1) of 8.3 ng/mL, a Resistance index (Plasmodium falciparum K1) of 2.4 and an IC50 [1] of 3.4 ng/mL. It also gave an inhibition in vivo at 10 mg/kg (Plasmodium berghei; [2]) of 98% and an inhibition in vivo at 10 mg/kg (Plasmodium berghei; [3]) of 99%.

For `COc1cc(CCN[C@H]2CC[C@H](Nc3ccnc4cc(Cl)ccc34)CC2)cc(OC)c1.Cl.Cl` [Example 94, trans-N1-(7-Chloro-quinolin-4-yl)-N4-[2-(3,5-dimethoxy-phenyl)-ethyl]-cyclohexane-1,4-diamine dihydrochloride], the IC50 (Plasmodium falciparum K1) was 9.8 ng/mL, the Resistance index (Plasmodium falciparum K1) was 3.4 and the IC50 [1] was 2.9 ng/mL. For the same compound, the inhibition in vivo at 10 mg/kg (Plasmodium berghei; [2]) was 99% and the inhibition in vivo at 10 mg/kg (Plasmodium berghei; [3]) was 99.9%.

`Cl.Cl.Clc1ccc2c(N[C@H]3CC[C@H](NCCc4ccc5c(c4)OCO5)CC3)ccnc2c1` [Example 95, trans-N1-(2-Benzo[1,3]dioxol-5-yl-ethyl)-N4-(7-chloro-quinolin-4-yl)-cyclohexane-1,4-diamine dihydrochloride] showed an IC50 (Plasmodium falciparum K1) of 9.3 ng/mL, a Resistance index (Plasmodium falciparum K1) of 3.4 and an IC50 [1] of 2.7 ng/mL. The inhibition in vivo at 10 mg/kg (Plasmodium berghei; [2]) was 98% and the inhibition in vivo at 10 mg/kg (Plasmodium berghei; [3]) was 99.7%.

In the case of `Cl.Cl.Clc1cccc(CCN[C@H]2CC[C@H](Nc3ccnc4cc(Cl)ccc34)CC2)c1` [Example 96, trans-N1-[2-(3-Chloro-phenyl)-ethyl]-N4-(7-chloro-quinolin-4-yl)-cyclohexane-1,4-diamine dihydrochloride], the IC50 (Plasmodium falciparum K1) is reported as 9 ng/mL, the Resistance index (Plasmodium falciparum K1) is reported as 5.6 and the IC50 [1] is reported as 1.6 ng/mL. The inhibition in vivo at 10 mg/kg (Plasmodium berghei; [2]) was 95% and the inhibition in vivo at 10 mg/kg (Plasmodium berghei; [3]) was 98%.

For `COc1ccc(OC)c(CCN[C@H]2CC[C@H](Nc3ccnc4cc(Cl)ccc34)CC2)c1.Cl.Cl` [Example 97, trans-N1-(7-Chloro-quinolin-4-yl)-N4-[2-(2,5-dimethoxy-phenyl)-ethyl]-cyclohexane-1,4-diamine dihydrochloride], the IC50 (Plasmodium falciparum K1) was 17.8 ng/mL, the Resistance index (Plasmodium falciparum K1) was 4.3 and the IC50 [1] was 4.1 ng/mL. It also gave an inhibition in vivo at 10 mg/kg (Plasmodium berghei; [2]) of 49% and an inhibition in vivo at 10 mg/kg (Plasmodium berghei; [3]) of 99%.

`Cl.Cl.Clc1ccc2c(N[C@H]3CC[C@H](NCCc4ccc(Oc5ccccc5)cc4)CC3)ccnc2c1` [Example 98, trans-N1-(7-Chloro-quinolin-4-yl)-N4-[2-(4-phenoxy-phenyl)-ethyl]-cyclohexane-1,4-diamine dihydrochloride] was tested, and the IC50 (Plasmodium falciparum K1) was 8.5 ng/mL, the Resistance index (Plasmodium falciparum K1) was 1.9 and the IC50 [1] was 4.5 ng/mL. The inhibition in vivo at 10 mg/kg (Plasmodium berghei; [2]) was 50% and the inhibition in vivo at 10 mg/kg (Plasmodium berghei; [3]) was 93%.
